Assays:
[1] = tested on: CD4+ and CD8+ T cell populations; experiment: CD4/CD8 population analysis of splenocytes incubated with stimulated APCs; format: cell-based, Swiss Webster mice; details: 5 days
Protocol: The spleens were collected from the same mice that were harvested APCs from the intraperitoneal cavity, and the single-cell suspensions of the spleens were introduced into the stimulated APCs with a ratio of 1:1 (splenocytes:APCs). After a five-day incubation at 37° C. and 5% CO2, the splenocytes were harvested from the supernatant, washed with Hank's balanced salt solution and labeled with anti-mouse CD4 PE and anti-mouse CD8a FITC. The cells were analyzed for CD4^+ and CD8^+ T cell populations using BD Accuri® C6 flow cytometer.

RAW 264.7 cells = experiment: MTS cell cytotoxicity assay; format: cell-based, mouse; details: 10 mg/mL, positive control, relative to DMEM-treated cells
Protocol: Particles were tested for their cytotoxic properties using MTS assay (Promega), which determines cell viability in culture. RAW 264.7 cells (mouse leukemic monocyte macrophage cell line) were grown in DMEM medium, supplemented with 10% fetal bovine serum and 1% antibiotic in a cell culture flask. The cell culture media was then removed and cells were treated with 2 mL trypsin-EDTA. Thus, cells were detached from the cell culture flask and suspended in 1 mL complete DMEM media. Cell count of the resulting suspension was determined by trypan blue dye exclusion method using Bio-Rad counter (TC10™ Automated cell counter, Bio-Rad, CA). Cell suspension equivalent to 10,000 cells was plated in a 96 well cell culture plate and complete DMEM media was added to attain a volume of 100 μL per well. Plate was incubated for 24 h and various concentrations (2, 1, 0.5, 0.25, 0.125, 0.0625 mg/mL) of 4T07 antigen loaded particles were added to wells (n=3 for each concentration) and again incubated for 24 h. Cells treated with DMEM media alone were used as a negative control and cells treated with benzalkonium chloride (10 mg/ml) were chosen as a positive control (n=3 each). […] The plate was incubated for 4 h at 37° C. in a humidified, 5% CO2 chamber and absorbance was recorded at 490 nm using a UV plate reader (BioTek instruments Inc., VT).

dendritic cells (DC 2.4) = experiment: Nitric oxide release from dendritic cells exposed to RSV F-VLP vaccine; format: cell-based
Protocol: For in vitro analysis of immunogenicity of the F-VLP, dendritic cells (DC 2.4) were cultured and exposed to varying concentrations of the vaccine. The optimal concentration was then used to screen four different adjuvants (Poly I:C, Alum, MPL and MF59). Evaluation of innate and adaptive immunity was done using the nitric oxide assay and expression of cell surface markers using the C6 flow cytometer.
a. Following exposure to an antigen, dendritic cells (DC 2.4) are known to release nitric oxide and express cell surface markers that signal CD4+ Helper T cells and/or CD8+ Cytotoxic T cells.

APCs = experiment: Nitric oxide assay (Greiss) on harvested APCs; format: cell-based, Swiss Webster mice; details: 2.5 μg adjuvant in MP + 2.5 μg M2p in MP, 20 hours
Protocol: 5 Sodium thioglycolate was injected into the intraperitoneal cavity of Swiss Webster (6-8 week old) with the amount of 40 mg per mouse to recruit the APCs (13)(14). After four days, these mice were euthanized and 5.0 mL of PBS was injected intraperitoneally into each mouse to harvest cells from the cavity. Collected cells were washed with PBS twice before adding the complete RPMI media. After these APCs adhered to the bottom of a T75 flask, the supernatant was removed and complete RPMI media was added in the presence of ConA ([…]).
The harvested APCs (5×10^4 cells/well) were seeded in Dulbecco's complete media in a 96 well plate. The soluble and particulate vaccines (with and without adjuvants) were introduced to the APCs with the same amount of antigen (2.5 μg) and adjuvant (2.5 μg). The induced APCs were incubated for 20 hours at 37° C. % CO2. Supernatants were collected and the amount of nitric oxide released in each group was analyzed using the Greiss chemical method (equal volumes of 1% sulphanilamide and 0.1% N-(1-naphthylethylenediamine)). The plate was read at a wavelength of 540 nm (15).

## monophospholyl lipid A [MPL]
[1]
  CD8+ T cell population compared to M2p MP treated group: elevated

## CCCCCCCCCCCCC[N+](C)(C)Cc1ccccc1 [benzalkonium chloride]
RAW 264.7 cells
  cell viability: 21%

## Poly I:C
Dendritic cells (DC 2.4)
  amount of nitric oxide released, vaccine with adjuvant compared to vaccine alone: much higher compared to vaccine alone

B1: Flagellin: flagellin from Salmonella typhimurium, adjuvant in microparticles (protein, UniProt P06179 2-495, looked up)
Flagellin: AQVINTNSLSLLTQNNLNKSQSALGTAIERLSSGLRINSAKDDAAGQAIANRFTANIKGLTQASRNANDGISIAQTTEGALNEINNNLQRVRELAVQSANSTNSQSDLDSIQAEITQRLNEIDRVSGQTQFNGVKVLAQDNTLTIQVGANDGETIDIDLKQINSQTLGLDTLNVQQKYKVSDTAATVTGYADTTIALDNSTFKASATGLGGTDQKIDGDLKFDDTTGKYYAKVTVTGGTGKDGYYEVSVDKTNGEVTLAGGATSPLTGGLPATATEDVKNVQVANADLTEAKAALTAAGVTGTASVVKMSYTDNNGKTIDGGLAVKVGDDYYSATQNKDGSISINTTKYTADDGTSKTALNKLGGADGKTEVVSIGGKTYAASKAEGHNFKAQPDLAEAAATTTENPLQKIDAALAQVDTLRSDLGAVQNRFNSAITNLGNTVNNLTSARSRIEDSDYATEVSNMSRAQILQQAGTSVLAQANQVPQNVLSLLR
[1]
  CD4+ T cell population compared to M2p MP treated group: elevated CD4+ T cell population
APCs
  nitric oxide level compared to M2p MP group: significantly higher
